Patent US5371096A, “(3-pyridyl)tetrafuran-2-yl substituted carboxylic acids” (Ciba-Geigy Corporation, priority 1993, dated 1994)

Assays:
thromboxane-A2 receptor [1] = target: T1, thromboxane-A2 receptor (Homo sapiens, UniProt P21731); experiment: inhibition of U-46619-induced aggregation of aspirinated washed human platelets; assay type: cell-based; design: U-46619 induced platelet aggregation of aspirinated human washed platelets and in human platelet rich plasma; endogenous in cells; host or cells: human platelets (aspirinated washed platelets in A1; platelet rich plasma in A2); conditions: in vitro
T1 sequence (P21731 1-343): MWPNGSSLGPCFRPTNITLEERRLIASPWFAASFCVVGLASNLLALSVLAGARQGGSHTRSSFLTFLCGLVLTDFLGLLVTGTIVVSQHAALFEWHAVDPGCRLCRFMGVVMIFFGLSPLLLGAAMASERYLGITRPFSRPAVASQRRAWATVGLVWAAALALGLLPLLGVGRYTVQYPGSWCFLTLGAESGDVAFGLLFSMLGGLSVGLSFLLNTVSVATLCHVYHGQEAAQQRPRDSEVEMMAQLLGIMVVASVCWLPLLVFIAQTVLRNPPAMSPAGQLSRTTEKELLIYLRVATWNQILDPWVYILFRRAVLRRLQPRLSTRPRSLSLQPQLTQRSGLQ
Procedure: Acad. Sci. 76, 4097 (1979).
(§1) The inhibition of thromboxane-A2 receptor activity is determined by measuring the inhibition of U-46619 induced platelet aggregation of aspirinated human washed platelets and in human platelet rich plasma. U-46619 is (15S)-hydroxy-11-α,9-α(epoxymethanol)-prosta-(5Z,13E)-dienoic acid, a throm boxane-A2 receptor agonist, as described by Di Minno et at, Thromb. Haemost. 45, 103 (1981).

[2] = system: U46619-induced platelet aggregation; experiment: inhibition of U46619-induced platelet aggregation after oral dosing in guinea pigs; assay type: in vivo, guinea pig
Procedure: (§2) Such inhibition of platelet aggregation is determined using methodology known in the art, e.g. in vitro in the presence of a compound of the invention in human platelet rich plasma, or by measuring the inhibition of aggregation seen in plasma obtained from a mammal previously administered a compound of the invention, e.g. orally or intravenously when compared to controls. Platelet aggregation is measured in a Born aggregometer and platelet rich plasma is prepared from venous blood e.g. as described in Br. J. Haematol. 43, 637 (1979). Suitable test animals are anesthetized rats or guinea pigs and unanesthetized rabbits or cyanomolgus monkeys.

thromboxane-A2 receptor [3] = target: T1, thromboxane-A2 receptor; experiment: inhibition of U-46619 induced aggregation in human platelet rich plasma; assay type: cell-based; conditions: in vitro
Procedure: as §1, §2

[4] = system: U46619-induced ex vivo platelet aggregation; experiment: U46619-induced ex vivo platelet aggregation after oral dosing in cyanomolgus monkeys; design: species or system cyanomolgus monkey; conditions: 30 mg/kg
Procedure: as §2

thromboxane synthetase = experiment: serum thromboxane B2, 6-keto-PGF1α and PGE2 levels after oral dosing in cyanomolgus monkeys; assay type: in vivo, cyanomolgus monkey; conditions: 30 mg/kg
[5] = concomitant with serum thromboxane B2 inhibition

SMILES	IC50 (thromboxane-A2 receptor [1]) [nM]	inhibition of U46619-induced platelet aggregation 1 hour post dose ([2]; conscious guinea pigs, oral, 0.3 mg/kg, 1 hour post dose)	increase of the concentration of thromboxane-mimetic required to induce 50% maximal aggregation ([2]; guinea pigs, oral dose of 0.23 mg/kg) [fold]	IC50 (thromboxane-A2 receptor [3]) [nM]	duration of total inhibition of U46619-induced ex vivo platelet aggregation [4]	time of return of ex vivo platelet aggregation to predose values [4] [h]	inhibition of U46619-induced ex vivo platelet aggregation ([4]; for at least 8 hours)	duration of inhibition of serum thromboxane B2 (thromboxane synthetase) [h]	6-keto-PGF1α level (thromboxane synthetase; [5])	PGE2 level (thromboxane synthetase; [5])
O=C(O)CC/C=C\CC[C@@H]1[C@@H](OCc2ccc(-c3ccccc3)cc2)CO[C@@H]1c1cccnc1 [Example 1, (Z)-(2S,3S,4R)-7-[4-(1,1'-biphenyl-4-ylmethoxy)-2-(3-pyridyl)tetrahydrofuran-3-yl]-4-heptenoic acid]	26.5	effectively inhibits	50	250	at least 8 hours	24	totally inhibited	24	elevations	elevations
O=C(O)CCC=CCCC1C(OCc2ccc(-c3ccccc3)cc2)COC1c1cccnc1 (stereo not drawn) [Example 8(a), (Z)-(2α,3β,4β)-7-[4-(biphenyl-4-yl-methoxy)-2-(3-pyridyl)tetrahydrofuran-3-yl)hept-4-enoic acid]	28	–	–	~400	–	–	–	–	–	–
